Measured values published in patent publication US20240415790A1, “A COMPOSITION FOR USE IN THE TREATMENT OF INTERVERTEBRAL DISC HERNIATION” (STAYBLE THERAPEUTICS AB, priority 2020, published 2024).
Where “and” joins values, the source holds several entries; their conditions need not be identical. Equal values may be shown once.

Assays:
[1] = test system: porcine IVD; experiment: T2-weighted MRI and photographs of porcine IVD after LA (series 3), disc height and width; format: in vivo; settings: pig
Experimental: Since effects of LA on the NP in the subsequent clinical study was planned to be assessed using MRI, the third series focused on the effects of LA (0.2 mL, 60 mg/mL) on sclerotization as measured by T2-weighted MRI. In addition, effects of LA on the expression of collagen I and II were studied by immunohistochemistry (IHC). […] MR images were obtained using a 7T small animal MRI system (Bruker Biospec). A single 50 mm volume coil array was used (Tx/Rx). The dissected spines were stripped of the attached muscles, the spinous processes, transverse processes, and posterior aspects of the facet joints to allow them to fit in the MRI system. T2-weighted (TR: 2500-2834 ms, TE: 33-35.84 ms), 2D TurboRARE transversal and sagittal sequences were used. The TR and TE could not be maintained the same for all sequences due to required adjustments in field of view the different specimens, leading to an increased pixel matrix which affected the TR and TE. For the transverse sequences, a 500 μm slice thickness with 750 μm interslice distance and an in-plane resolution of 166×166 μm was used. For the sagittal sequences, a 750 μm slice thickness with 2000 μm interslice distance and an in-place resolution of 166×166 μm was used. […] Images were analyzed using Sante DICOM Viewer (version 8.1.5, Santesoft, Athens, Greece). The treated IVDs in all animals were assessed, and the IVD one level above the treated IVD was scanned as control. The size of the NP was quantified using both MR images and photographs of the IVDs (see FIG. 6). The results from the macroscopic and MR analyses were then correlated. […] The relative disc height was expressed as a ratio of height of treated IVD/height of untreated (control) IVD. Analogously, the relative disc width was expressed as a ratio of width of treated IVD/width of untreated (control) IVD.

[2] = test system: patients with chronic discogenic low back pain; experiment: Randomized placebo-controlled single ascending dose study, safety and tolerability of intradiscal injection; format: in vivo, human
From the text: The study was a randomized, double-blinded, placebo-controlled, single ascending dose study with the primary objective to evaluate safety and tolerability following intradiscal injection of LA in Omnipaque or placebo (Omnipaque) in 15 patients with chronic discogenic low back pain. The secondary objective was to assess effects on the NP and disc height using T2-weighted MRI. […] Prior to dose escalation, the safety review committee assessed all safety data up to Visit 3 (1 week after treatment). In case of any safety or tolerability concerns, dosing could be discontinued, or the planned dose could be lowered. The test product in this study was containing the active ingredient (S)-LA, which was provided to the site as a sterile solution in a syringe for single use. The LA doses administered were 45, 90 and 180 mg in a volume of 1.5 mL, corresponding to LA concentrations of 30, 60 and 120 mg/mL. The formulation for administration was prepared extempore and contained the contrast agent iohexol (Omnipaque™) and water for injection. The final concentration of iohexol in the injected solution was 388 mg/mL. Small amounts of tromethamine, Na2Ca edetate and HCl were also present. The solution was clear and colourless to slightly coloured. At the treatment day, patients received premedication with a sedative or anxiolytic and antibiotics, given as an i.v. infusion approximately 15 min before the intradiscal injection. The patient was placed in the right lateral decubitus position and injection was done using the two-needle technique under fluoroscopy guidance. Once correct intradiscal needle placement had been confirmed, a small volume (approximately 0.5 mL) of the formulation was first injected slowly (during half a minute) to verify that the distribution of the injectate was confined to the disc and that there was no leakage. If no leakage had occurred within half a minute, this procedure was repeated twice until the entire volume (1.5 mL) had been injected. If there was any leakage from the disc during injection, either after injection of a small volume or the entire volume (1.5 mL), the injection was interrupted. […] All patients stayed overnight at the clinic after the injection, for observation and safety assessments. After leaving the clinic, patients were to be treated with analgesics and/or other measures according to standard clinical practice. They were also given advice on restricted physical activity during the first week. Physical examination, blood pressure, heart rate, electrocardiogram (ECG), clinical chemistry and hematology were assessed using routine clinical methods. Pain during and 15 min after injection was measured using a VAS scale (0-100 mm) and the patient reported whether or not the pain reproduced the pain normally experienced in terms of location and type of pain. The distribution of Omnipaque within the IVD was documented according to the Dallas discogram scale. Local site reactions to the injection were noted, and AEs were graded for seriousness, intensity, and causality to the treatment. SAEs were defined according to the International Conference of Harmonisation guideline E2A.

[3] = individual animals 1-5, LA 0.2 mL 60 mg/mL
[4] = mean of 5 animals, LA 0.2 mL 60 mg/mL

CC(O)C(=O)O (stereo not shown) [LA, lactic acid]
2 (67%): Adverse events by causality, Unlikely, n (%) number of patients ([2]; LA 30 mg/ml (n = 3)) | Any adverse event, n (%) number of patients ([2]; LA 30 mg/ml (n = 3)) | Adverse events by severity, Moderate, n (%) number of patients ([2]; LA 60 mg/ml (n = 3)) | Adverse events by causality, Probable, n (%) number of patients ([2]; LA 120 mg/ml (n = 3)) | Adverse events by causality, Unlikely, n (%) number of patients ([2]; LA 120 mg/ml (n = 3))
1 and 1.01 and 0.99 (2×) and 1.04: Relative disc width (treated IVD/untreated control IVD) [1, 3]
1: Adverse events by causality, Probable, m number of events ([2]; LA 30 mg/ml (n = 3)) | Adverse events by severity, Mild, m number of events ([2]; LA 60 mg/ml (n = 3)) | Adverse events by causality, Possible, m number of events ([2]; LA 120 mg/ml (n = 3))
much lower: T2-weighted MRI intensity of the sclerotized NP ([1]; LA 60 mg/mL)
significant reduction in height: Height of the treated IVD on MR image (FIG. 12) ([1]; 60 mg/ml LA, 30 days prior to the image, vs untreated control IVD)
1 (33%): Adverse events by causality, Probable, n (%) number of patients ([2]; LA 30 mg/ml (n = 3)) | Adverse events by severity, Mild, n (%) number of patients ([2]; LA 30 mg/ml (n = 3)) | Adverse events by severity, Moderate, n (%) number of patients ([2]; LA 30 mg/ml (n = 3)) | Adverse events by severity, Mild, n (%) number of patients ([2]; LA 60 mg/ml (n = 3)) | Adverse events by causality, Possible, n (%) number of patients ([2]; LA 120 mg/ml (n = 3)) | Adverse events by severity, Moderate, n (%) number of patients ([2]; LA 120 mg/ml (n = 3))
2: Adverse events by severity, Mild, m number of events ([2]; LA 30 mg/ml (n = 3)) | Adverse events by severity, Moderate, m number of events ([2]; LA 30 mg/ml (n = 3)) | Adverse events by severity, Moderate, m number of events ([2]; LA 60 mg/ml (n = 3)) | Adverse events by severity, Moderate, m number of events ([2]; LA 120 mg/ml (n = 3))
3: Adverse events by causality, Unlikely, m number of events ([2]; LA 30 mg/ml (n = 3)) | Adverse events by causality, Probable, m number of events ([2]; LA 60 mg/ml (n = 3)) | Any adverse event, m number of events ([2]; LA 60 mg/ml (n = 3)) | Adverse events by causality, Unlikely, m number of events ([2]; LA 120 mg/ml (n = 3))
1.01: Relative disc width, mean value [1, 4]
3 (100%): Adverse events by causality, Probable, n (%) number of patients ([2]; LA 60 mg/ml (n = 3)) | Any adverse event, n (%) number of patients ([2]; LA 60 mg/ml (n = 3)) | Adverse events by severity, Mild, n (%) number of patients ([2]; LA 120 mg/ml (n = 3)) | Any adverse event, n (%) number of patients ([2]; LA 120 mg/ml (n = 3))
4: Any adverse event, m number of events ([2]; LA 30 mg/ml (n = 3)) | Adverse events by causality, Probable, m number of events ([2]; LA 120 mg/ml (n = 3))
0: Adverse events by causality, Possible, m number of events ([2]; LA 30 mg/ml (n = 3)) | Adverse events by causality, Possible, n (%) number of patients ([2]; LA 30 mg/ml (n = 3)) | Adverse events by severity, Severe, m number of events ([2]; LA 30 mg/ml (n = 3)) | Adverse events by severity, Severe, n (%) number of patients ([2]; LA 30 mg/ml (n = 3)) | Any serious adverse event, m number of events ([2]; LA 30 mg/ml (n = 3)) | Any serious adverse event, n (%) number of patients ([2]; LA 30 mg/ml (n = 3)) | Adverse events by causality, Possible, m number of events ([2]; LA 60 mg/ml (n = 3)) | Adverse events by causality, Possible, n (%) number of patients ([2]; LA 60 mg/ml (n = 3)) | Adverse events by causality, Unlikely, m number of events ([2]; LA 60 mg/ml (n = 3)) | Adverse events by causality, Unlikely, n (%) number of patients ([2]; LA 60 mg/ml (n = 3)) | Adverse events by severity, Severe, m number of events ([2]; LA 60 mg/ml (n = 3)) | Adverse events by severity, Severe, n (%) number of patients ([2]; LA 60 mg/ml (n = 3)) | Any serious adverse event, m number of events ([2]; LA 60 mg/ml (n = 3)) | Any serious adverse event, n (%) number of patients ([2]; LA 60 mg/ml (n = 3)) | Adverse events by severity, Severe, m number of events ([2]; LA 120 mg/ml (n = 3)) | Adverse events by severity, Severe, n (%) number of patients ([2]; LA 120 mg/ml (n = 3)) | Any serious adverse event, m number of events ([2]; LA 120 mg/ml (n = 3)) | Any serious adverse event, n (%) number of patients ([2]; LA 120 mg/ml (n = 3))
safe and tolerable: Safety and tolerability of the treatment ([2]; patients, intradiscal 45-180 mg)
0.55 and 0.2 and 0.33 and 0.7 and 0.36: Relative disc height (treated IVD/untreated control IVD) [1, 3]
6: Adverse events by severity, Mild, m number of events ([2]; LA 120 mg/ml (n = 3))
8: Any adverse event, m number of events ([2]; LA 120 mg/ml (n = 3))
0.43: Relative disc height, mean value [1, 4]
